Common to all, as to assay: growth of human tumour cells (NCI), 48 h
For assay [1], the system named is UACC-257 melanoma.
The subject of assay [2] is SK-MEL-2 melanoma.
The test system of assay [3] is A498 renal.
The subject of assay [4] is HCT-15 colon.
Assay [5] deals with HT29 colon.
Assay [6] has as its system MALME-3M melanoma.
The subject of assay [7] is A549 NSCLC.
For assay [8], the system named is DU-145 prostate.
In assay [9] the test system is HS 578T breast.
In assay [10] the test system is HOP-62 NSCLC.

SMILES strings stand for the structures.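 Step 1: Grow cells in 96-well plates. Step 2: Expose to compound for 48 hours at 5 concentrations. Step 3: Interpolate endpoints linearly; if unreached, use highest concentration. GI50 = concentration required for 50% inhibition of growth. TGI: total growth inhibition.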

Turning to `c1ccc(-c2nc3n(c2-c2ccc4c(c2)OCO4)CCC3)nc1`, the GI50 is 7.45 µM in assay [1]; 11.7 µM in assay [2]; 5.76 µM in assay [3]; 0.766 µM in assay [4]; 7.79 µM in assay [5]; 8.19 µM in assay [6]. For the same compound, the GI50 in [7] was 5.88 µM; in assay [8], 7.22 µM; in [9], 8.24 µM; in [10], 4.93 µM. The TGI in assay [1] was 21.9 µM; in assay [2], greater than 25 µM; in assay [3], 20.6 µM; in [4], greater than 25 µM; in assay [5], greater than 25 µM; in assay [6], greater than 23.4 µM. Besides, the TGI in [7] was greater than 25 µM; in assay [8], greater than 25 µM; in [9], greater than 25 µM; in assay [10], greater than 17.6 µM.
On to `Clc1ccc(/C=C/c2ccc3ccccc3n2)cc1`, for which the GI50 in [1] was 1.83 µM; in assay [2] it was 0.311 µM; in assay [3], 0.306 µM; in [4] it was 2.08 µM; in [5] it was 2.62 µM; in [6] it was 0.934 µM. Moreover, the GI50 was 1.75 µM in assay [7], 2.23 µM in assay [8], 0.617 µM in assay [9] and greater than 100 µM in assay [10]. Further, the TGI is greater than 100 µM in assay [1]; 1.24 µM in assay [2]; greater than 100 µM in assay [3]; greater than 100 µM in [4]; 8.8 µM in assay [5]; 71.8 µM in [6]. Further, the TGI in assay [7] is greater than 100 µM; in assay [8], 5.41 µM; in assay [9], 10.5 µM; in [10] it was greater than 100 µM.
Consider `O=C(NN1C(=O)CSC1c1cccc(Cl)c1)C(O)c1ccccc1` (stereo not given), for which the GI50 was greater than 100 µM in assay [1]; greater than 100 µM in assay [2]; greater than 100 µM in assay [3]; 68.6 µM in [4]; greater than 100 µM in assay [5]; greater than 100 µM in [6]. For the same compound, the GI50 in assay [7] was 35.9 µM; in assay [8] it was 83.4 µM; in assay [9] it was greater than 100 µM; in [10], greater than 100 µM. Further, the TGI in [1], in assay [2], in assay [3], in [4], in assay [5] and in assay [6] was greater than 100 µM throughout. Also, the TGI in assay [7], in assay [8], in assay [9] and in [10] was greater than 100 µM throughout.
Consider `CN(C)N1C(=O)SCC(c2ccccc2)(c2ccccc2)C1=O`, for which the TGI in [1], in assay [2], in assay [3], in assay [4], in assay [5] and in assay [6] was greater than 100 µM throughout. Also, the TGI in assay [7], in assay [8], in [9] and in assay [10] was greater than 100 µM each time.
Turning to `NC(=O)c1cccnc1`, the GI50 in assay [1], in assay [2], in assay [3], in assay [4], in [5] and in [6] was greater than 100 µM in each case. Also, the GI50 in assay [7], in [8], in assay [9] and in assay [10] was greater than 100 µM each time. In addition, the TGI in assay [1], in assay [2], in assay [3], in [4], in [5] and in assay [6] was greater than 100 µM in each case. The TGI in assay [7], in assay [8], in [9] and in [10] was greater than 100 µM throughout.
For `COc1ccc(-c2nc(-c3nc4cc(Cl)c(F)cc4[nH]3)c3ccccn23)cc1`, the GI50 in assay [1] is 3.15 µM; in assay [2], 6.86 µM; in [3], 2.31 µM; in assay [4] it was 5.72 µM; in assay [5] it was 4.26 µM; in assay [6] it was 20 µM. Besides, the GI50 in assay [7] is 4.04 µM; in assay [8], 6.58 µM; in [9], 12.2 µM; in [10] it was 19.8 µM. The TGI was 13.2 µM in [1]; 80 µM in assay [2]; greater than 100 µM in [3]; greater than 100 µM in assay [4]; greater than 100 µM in [5]; greater than 100 µM in [6]. Moreover, the TGI in assay [7], in assay [8], in assay [9] and in assay [10] was greater than 100 µM throughout.
As to `CCOC(=O)c1ccc(NC(=O)NC2=NCCS2)cc1`, the GI50 in assay [1] was greater than 100 µM; in assay [2], 24.6 µM; in assay [3] it was 0.34 µM; in assay [4] it was 8.54 µM; in assay [5], greater than 93.5 µM; in assay [6] it was 0.465 µM. Moreover, the GI50 was 0.584 µM in [7], 1.71 µM in assay [8], 1.97 µM in [9] and 1.75 µM in assay [10]. The TGI was greater than 100 µM in assay [1]; 97.9 µM in [2]; 2.24 µM in assay [3]; greater than 100 µM in assay [4]; greater than 100 µM in assay [5]; greater than 100 µM in assay [6]. Also, the TGI in [7], in [8], in assay [9] and in assay [10] was greater than 100 µM each time.
With `CC(C)(C)[Si](C)(C)OC1[C@@H](CNC(N)=O)O[C@@H](n2cnc3c(NC(=O)Nc4ccccc4)ncnc32)[C@H]1O[Si](C)(C)C(C)(C)C` (stereo not given in full), the GI50 in assay [1] was 5.36 µM; in [2] it was 7.09 µM; in assay [3] it was 1.56 µM; in [4] it was 2.67 µM; in assay [5], 1.07 µM; in assay [6], 5.19 µM. Besides, the GI50 in assay [7] was 1.98 µM; in assay [8], 1.71 µM; in assay [9], 1.17 µM; in assay [10], 6.38 µM. The TGI was 12.1 µM in assay [1]; 14.9 µM in assay [2]; 8.04 µM in [3]; 10.3 µM in [4]; 2.22 µM in assay [5]; 12.5 µM in assay [6]. Moreover, the TGI in [7] worked out at 7.82 µM; in assay [8], 5.59 µM; in assay [9] it was 3.02 µM; in assay [10] it was 12.9 µM.

Values taken from PubChem BioAssay (NCI).
